≈ marks a conversion by molar mass, not a printed value.
Columns and labels:
Format in all cases: functional
[1] = test system: Parabacteroides distasonis; experiment: Antimicrobial activity against Parabacteroides distasonis by Wadsworth agar dilution method
[2] = test system: Bacteroides fragilis; experiment: Antimicrobial activity against Bacteroides fragilis by Wadsworth agar dilution method
[3] = test system: Bacteroides ovatus; experiment: Antimicrobial activity against Bacteroides ovatus by Wadsworth agar dilution method
[4] = test system: Bacteroides thetaiotaomicron; experiment: Antimicrobial activity against Bacteroides thetaiotaomicron by Wadsworth agar dilution method
[5] = test system: Bacteroides nordii; experiment: Antimicrobial activity against Bacteroides nordii by Wadsworth agar dilution method
[6] = test system: Desulfovibrio fairfieldensis; experiment: Antimicrobial activity against Desulfovibrio fairfieldensis by Wadsworth agar dilution method
[7] = test system: Desulfovibrio vulgaris; experiment: Antimicrobial activity against Desulfovibrio vulgaris by Wadsworth agar dilution method; settings: Nitratidesulfovibrio vulgaris
[8] = test system: Desulfovibrio sp.; experiment: Antimicrobial activity against Desulfovibrio sp. by Wadsworth agar dilution method
[9] = test system: Fusobacterium nucleatum; experiment: Antimicrobial activity against Fusobacterium nucleatum by Wadsworth agar dilution method
[10] = test system: Fusobacterium varium; experiment: Antimicrobial activity against Fusobacterium varium by Wadsworth agar dilution method
[11] = test system: Porphyromonas somerae; experiment: Antimicrobial activity against Porphyromonas somerae by Wadsworth agar dilution method
[12] = test system: Prevotella corporis; experiment: Antimicrobial activity against Prevotella corporis by Wadsworth agar dilution method
[13] = test system: Prevotella melaninogenica; experiment: Antimicrobial activity against Prevotella melaninogenica by Wadsworth agar dilution method
[14] = test system: Clostridium hathewayi; experiment: Antimicrobial activity against Clostridium hathewayi by Wadsworth agar dilution method; settings: Hungatella hathewayi
[15] = test system: Clostridium aminobutyricum; experiment: Antimicrobial activity against Clostridium aminobutyricum by Wadsworth agar dilution method
[16] = test system: Clostridium bolteae; experiment: Antimicrobial activity against Clostridium bolteae by Wadsworth agar dilution method; settings: Enterocloster bolteae
[17] = test system: Clostridium butyricum; experiment: Antimicrobial activity against Clostridium butyricum by Wadsworth agar dilution method
[18] = test system: Clostridium cadaveris; experiment: Antimicrobial activity against Clostridium cadaveris by Wadsworth agar dilution method
[19] = test system: Clostridium disporicum; experiment: Antimicrobial activity against Clostridium disporicum by Wadsworth agar dilution method
[20] = test system: Clostridium glycolicum; experiment: Antimicrobial activity against Clostridium glycolicum by Wadsworth agar dilution method; settings: Terrisporobacter glycolicus
[21] = test system: Clostridium lactatifermentans; experiment: Antimicrobial activity against Clostridium lactatifermentans by Wadsworth agar dilution method; settings: Anaerotignum lactatifermentans
[22] = test system: Clostridium leptum; experiment: Antimicrobial activity against Clostridium leptum by Wadsworth agar dilution method
[23] = test system: Clostridium scindens; experiment: Antimicrobial activity against Clostridium scindens by Wadsworth agar dilution method

`CO[C@H]1/C=C/O[C@@]2(C)Oc3c(C)c(O)c4c(O)c(c5c(nc6cc(C)ccn65)c4c3C2=O)NC(=O)/C(C)=C\C=C\[C@H](C)[C@H](O)[C@@H](C)[C@@H](O)[C@@H](C)[C@H](OC(C)=O)[C@@H]1C` [RIFAXIMIN] was tested, and the MIC [1] was 0.25 µg/mL (≈ 0.318 µM), the MIC50 [1] was 0.25 µg/mL (≈ 0.318 µM) and the MIC90 [1] was 1 µg/mL (≈ 1.27 µM). The MIC [2] was 0.25 µg/mL (≈ 0.318 µM), the MIC50 [2] was 0.25 µg/mL (≈ 0.318 µM) and the MIC90 [2] was > 1020 µg/mL. The MIC50 [3] was 1 µg/mL (≈ 1.27 µM), the MIC90 [3] was 1 µg/mL (≈ 1.27 µM) and the MIC50 [4] was 1 µg/mL (≈ 1.27 µM). For the same compound, the MIC90 [4] was > 1020 µg/mL, the MIC [5] was 0.25 µg/mL (≈ 0.318 µM) and the MIC50 [5] was 0.25 µg/mL (≈ 0.318 µM). For the same compound, the MIC90 [5] was 0.5 µg/mL (≈ 0.636 µM), the MIC50 [6] was 16 µg/mL (≈ 20.4 µM) and the MIC90 [6] was 332 µg/mL (≈ 422 µM). For the same compound, the MIC50 [7] was 16 µg/mL (≈ 20.4 µM), the MIC90 [7] was 332 µg/mL (≈ 422 µM) and the MIC50 [8] was 16 µg/mL (≈ 20.4 µM). The MIC90 [8] was 332 µg/mL (≈ 422 µM), the MIC50 [9] was 2 µg/mL (≈ 2.54 µM) and the MIC90 [9] was 8 µg/mL (≈ 10.2 µM). The MIC50 [10] was 16 µg/mL (≈ 20.4 µM), the MIC90 [10] was > 1020 µg/mL and the MIC [11] was 0.25 µg/mL (≈ 0.318 µM). For the same compound, the MIC50 [11] was 0.25 µg/mL (≈ 0.318 µM), the MIC90 [11] was 0.5 µg/mL (≈ 0.636 µM) and the MIC [12] was 0.25 µg/mL (≈ 0.318 µM). For the same compound, the MIC50 [12] was 0.25 µg/mL (≈ 0.318 µM), the MIC90 [12] was 0.5 µg/mL (≈ 0.636 µM) and the MIC [13] was 0.25 µg/mL (≈ 0.318 µM). The MIC50 [13] was 0.25 µg/mL (≈ 0.318 µM), the MIC90 [13] was 0.5 µg/mL (≈ 0.636 µM) and the MIC50 [14] was 0.25 µg/mL (≈ 0.318 µM). It also gave an MIC90 [14] of 0.25 µg/mL (≈ 0.318 µM), an MIC [15] of 0.25 µg/mL (≈ 0.318 µM) and an MIC50 [15] of 0.25 µg/mL (≈ 0.318 µM). For the same compound, the MIC90 [15] was > 1020 µg/mL, the MIC [16] was 0.25 µg/mL (≈ 0.318 µM) and the MIC50 [16] was 0.25 µg/mL (≈ 0.318 µM). For the same compound, the MIC90 [16] was > 1020 µg/mL, the MIC [17] was 0.25 µg/mL (≈ 0.318 µM) and the MIC50 [17] was 0.25 µg/mL (≈ 0.318 µM). The MIC90 [17] was > 1020 µg/mL, the MIC [18] was 0.25 µg/mL (≈ 0.318 µM) and the MIC50 [18] was 0.25 µg/mL (≈ 0.318 µM). For the same compound, the MIC90 [18] was > 1020 µg/mL, the MIC [19] was 0.25 µg/mL (≈ 0.318 µM) and the MIC50 [19] was 0.25 µg/mL (≈ 0.318 µM). The MIC90 [19] was > 1020 µg/mL, the MIC [20] was 0.25 µg/mL (≈ 0.318 µM) and the MIC50 [20] was 0.25 µg/mL (≈ 0.318 µM). The MIC90 [20] was > 1020 µg/mL, the MIC [21] was 0.25 µg/mL (≈ 0.318 µM) and the MIC50 [21] was 0.25 µg/mL (≈ 0.318 µM). The MIC90 [21] was > 1020 µg/mL, the MIC [22] was 0.25 µg/mL (≈ 0.318 µM) and the MIC50 [22] was 0.25 µg/mL (≈ 0.318 µM). The MIC90 [22] was > 1020 µg/mL and the MIC [23] was 0.25 µg/mL (≈ 0.318 µM).
